Results reported in ChEMBL document CHEMBL3044665, “Adzuki bean (Vigna angularis) responses to post-emergence herbicides” (Crop Prot, 2006).

Columns and labels:
Type in all cases: organism-based
Vigna angularis [1] = assay: Phytotoxicity in Vigna angularis (adzuki bean) assessed as shoot dry weight at 72 g ai/ha measured per 1 m row after 42 days applied as spray (reference value: 153 g); details: in vivo, other, 1008 h
Vigna angularis [2] = assay: Phytotoxicity in Vigna angularis (adzuki bean) assessed as shoot dry weight at 144 g ai/ha measured per 1 m row after 42 days applied as spray (reference value: 153 g); details: in vivo, other, 1008 h
Vigna angularis [3] = assay: Phytotoxicity in Vigna angularis (adzuki bean) assessed as seed moisture content at 72 g ai/ha after 42 days applied as spray (reference value: 13.9%); details: in vivo, other, 1008 h, at 72 g/ha
Vigna angularis [4] = assay: Phytotoxicity in Vigna angularis (adzuki bean) assessed as visual injury at 72 g ai/ha after 14 days applied as spray relative to untreated control; details: in vivo, other, 336 h
Vigna angularis [5] = assay: Phytotoxicity in Vigna angularis (adzuki bean) assessed as crop yield at 72 g ai/ha measured during post emergence applied as spray (reference value: 2.05 t/ha); details: in vivo, other
Vigna angularis [6] = assay: Phytotoxicity in Vigna angularis (adzuki bean) assessed as plant height at 72 g ai/ha after 28 days applied as spray (RVB = 34 cm); details: in vivo, other, 672 h
Vigna angularis [7] = assay: Phytotoxicity in Vigna angularis (adzuki bean) assessed as visual injury at 144 g ai/ha after 28 days applied as spray relative to untreated control; details: in vivo, other, 672 h
Vigna angularis [8] = assay: Phytotoxicity in Vigna angularis (adzuki bean) assessed as plant height at 144 g ai/ha after 28 days applied as spray (RVB = 34 cm); details: in vivo, other, 672 h
Vigna angularis [9] = assay: Phytotoxicity in Vigna angularis (adzuki bean) assessed as visual injury at 144 g ai/ha after 14 days applied as spray relative to untreated control; details: in vivo, other, 336 h
Vigna angularis [10] = assay: Phytotoxicity in Vigna angularis (adzuki bean) assessed as visual injury at 72 g ai/ha after 7 days applied as spray relative to untreated control; details: in vivo, other, 168 h
Vigna angularis [11] = assay: Phytotoxicity in Vigna angularis (adzuki bean) assessed as visual injury at 72 g ai/ha after 28 days applied as spray relative to untreated control; details: in vivo, other, 672 h
Vigna angularis [12] = assay: Phytotoxicity in Vigna angularis (adzuki bean) assessed as crop yield at 144 g ai/ha measured during post emergence applied as spray (reference value: 2.05 t/ha); details: in vivo, other
Vigna angularis [13] = assay: Phytotoxicity in Vigna angularis (adzuki bean) assessed as visual injury at 144 g ai/ha after 7 days applied as spray relative to untreated control; details: in vivo, other, 168 h
Vigna angularis [14] = assay: Phytotoxicity in Vigna angularis (adzuki bean) assessed as seed moisture content at 144 g ai/ha after 42 days applied as spray (reference value: 13.9%); details: in vivo, other, 1008 h, at 144 g/ha
Vigna angularis [15] = assay: Phytotoxicity in Vigna angularis (adzuki bean) assessed as plant height at 500 g ai/ha after 28 days applied as spray (RVB = 34 cm); details: in vivo, other, 672 h
Vigna angularis [16] = assay: Phytotoxicity in Vigna angularis (adzuki bean) assessed as crop yield at 500 g ai/ha measured during post emergence applied as spray (reference value: 2.05 t/ha); details: in vivo, other
Vigna angularis [17] = assay: Phytotoxicity in Vigna angularis (adzuki bean) assessed as plant height at 1000 g ai/ha after 28 days applied as spray (RVB = 34 cm); details: in vivo, other, 672 h
Vigna angularis [18] = assay: Phytotoxicity in Vigna angularis (adzuki bean) assessed as visual injury at 1000 g ai/ha after 7 days applied as spray relative to untreated control; details: in vivo, other, 168 h
Vigna angularis [19] = assay: Phytotoxicity in Vigna angularis (adzuki bean) assessed as seed moisture content at 500 g ai/ha after 42 days applied as spray (reference value: 13.9%); details: in vivo, other, 1008 h, at 500 g/ha
Vigna angularis [20] = assay: Phytotoxicity in Vigna angularis (adzuki bean) assessed as crop yield at 1000 g ai/ha measured during post emergence applied as spray (reference value: 2.05 t/ha); details: in vivo, other
Vigna angularis [21] = assay: Phytotoxicity in Vigna angularis (adzuki bean) assessed as seed moisture content at 1000 g ai/ha after 42 days applied as spray (reference value: 13.9%); details: in vivo, other, 1008 h, at 1000 g/ha
Vigna angularis [22] = assay: Phytotoxicity in Vigna angularis (adzuki bean) assessed as shoot dry weight at 1000 g ai/ha measured per 1 m row after 42 days applied as spray (reference value: 153 g); details: in vivo, other, 1008 h
Vigna angularis [23] = assay: Phytotoxicity in Vigna angularis (adzuki bean) assessed as visual injury at 500 g ai/ha after 14 days applied as spray relative to untreated control; details: in vivo, other, 336 h
Vigna angularis [24] = assay: Phytotoxicity in Vigna angularis (adzuki bean) assessed as visual injury at 500 g ai/ha after 7 days applied as spray relative to untreated control; details: in vivo, other, 168 h
Vigna angularis [25] = assay: Phytotoxicity in Vigna angularis (adzuki bean) assessed as shoot dry weight at 500 g ai/ha measured per 1 m row after 42 days applied as spray (reference value: 153 g); details: in vivo, other, 1008 h
Vigna angularis [26] = assay: Phytotoxicity in Vigna angularis (adzuki bean) assessed as visual injury at 500 g ai/ha after 28 days applied as spray relative to untreated control; details: in vivo, other, 672 h
Vigna angularis [27] = assay: Phytotoxicity in Vigna angularis (adzuki bean) assessed as visual injury at 1000 g ai/ha after 28 days applied as spray relative to untreated control; details: in vivo, other, 672 h
Vigna angularis [28] = assay: Phytotoxicity in Vigna angularis (adzuki bean) assessed as visual injury at 1000 g ai/ha after 14 days applied as spray relative to untreated control; details: in vivo, other, 336 h

## CCOC(=O)[C@@H](C)Oc1ccc(Oc2cnc3cc(Cl)ccc3n2)cc1 [QUIZALOFOP-P-ETHYL]
Vigna angularis [1]
  Activity: 140 g
Vigna angularis [2]
  Activity: 135 g
Vigna angularis [3]
  Activity: 13.9%
Vigna angularis [4]
  Activity: 1.2%
Vigna angularis [5]
  Crop_yield: 2.22 tons/ha
Vigna angularis [6]
  Activity: 35.2 cm
Vigna angularis [7]
  Activity: 0.8%
Vigna angularis [8]
  Activity: 33.2 cm
Vigna angularis [9]
  Activity: 1.8%
Vigna angularis [10]
  Activity: 1.4%
Vigna angularis [11]
  Activity: 0.3%
Vigna angularis [12]
  Crop_yield: 2.08 tons/ha
Vigna angularis [13]
  Activity: 2.4%
Vigna angularis [14]
  Activity: 14.1%

## CCC/C(=N\OCC)C1=C(O)CC(CC(C)SCC)CC1=O (stereo not drawn) [SETHOXYDIM]
Vigna angularis [15]
  Activity: 33.1 cm
Vigna angularis [16]
  Crop_yield: 2.04 tons/ha
Vigna angularis [17]
  Activity: 32.8 cm
Vigna angularis [18]
  Activity: 4.9%
Vigna angularis [19]
  Activity: 14.1%
Vigna angularis [20]
  Crop_yield: 1.95 tons/ha
Vigna angularis [21]
  Activity: 14.3%
Vigna angularis [22]
  Activity: 142 g
Vigna angularis [23]
  Activity: 1.6%
Vigna angularis [24]
  Activity: 3.7%
Vigna angularis [25]
  Activity: 134 g
Vigna angularis [26]
  Activity: 0.4%
Vigna angularis [27]
  Activity: 1.1%
Vigna angularis [28]
  Activity: 3.6%
